Measurements as given in PubChem BioAssay (NCI).
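Values below derive from 48-hour exposures of cells grown in 96-well plates, with endpoints linearly interpolated between the two concentrations bracketing the appropriate inhibition level. GI50 is the concentration that inhibits growth by half. TGI denotes the concentration required for complete inhibition of growth.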

Key:
Assay in all cases: NCI anticancer screen, dose series, 48 h
TK-10 renal = system: TK-10 renal
EKVX NSCLC = system: EKVX NSCLC
CAKI-1 renal = system: CAKI-1 renal
SN12C renal = system: SN12C renal
HCT-116 colon = system: HCT-116 colon
OVCAR-4 ovarian = system: OVCAR-4 ovarian
ACHN renal = system: ACHN renal
HCC-2998 colon = system: HCC-2998 colon
SF-539 CNS = system: SF-539 CNS
MCF7 breast = system: MCF7 breast
HOP-92 NSCLC = system: HOP-92 NSCLC
SW-620 colon = system: SW-620 colon
MDA-MB-231 breast = system: MDA-MB-231 breast

Structure (SMILES) | TGI (TK-10 renal) [µM] | TGI (EKVX NSCLC) [µM] | TGI (CAKI-1 renal) [µM] | TGI (SN12C renal) [µM] | TGI (HCT-116 colon) [µM] | TGI (OVCAR-4 ovarian) [µM] | TGI (ACHN renal) [µM] | TGI (HCC-2998 colon) [µM] | TGI (SF-539 CNS) [µM] | TGI (MCF7 breast) [µM] | TGI (HOP-92 NSCLC) [µM] | TGI (SW-620 colon) [µM] | TGI (MDA-MB-231 breast) [µM] | GI50 (CAKI-1 renal) [µM] | GI50 (OVCAR-4 ovarian) [µM] | GI50 (ACHN renal) [µM] | GI50 (SF-539 CNS) [µM] | GI50 (HOP-92 NSCLC) [µM]
Cc1ccc(C(=O)Nc2ccc(CP(=O)(O)O)cc2)cc1NC(=O)c1cccc(N)c1 | > 100 | > 100 | > 100 | > 100 | > 100 | > 100 | > 100 | > 100 | > 100 | > 100 | > 100 | > 100 | > 100 | – | – | – | – | –
COCCN(CCNC(=O)c1cccc2c(N)c3cccc(C)c3nc12)CCOC | 16.6 | 7.7 | 4.49 | 6.54 | – | 6.38 | 13.5 | 1.72 | 4.64 | 23.3 | > 57.7 | > 50.2 | 5.43 | – | – | – | – | –
CN(C)c1ccc(/C=C/c2ccc(S(N)(=O)=O)cc2)cc1 | 39.8 | 52.5 | > 100 | 51.1 | 67.2 | 10.1 | 33.6 | > 100 | 25.6 | > 100 | 36 | 92.9 | 34.3 | 50.3 | 3.35 | 13.6 | 11.7 | 16.6
COC(=O)C1CCC(=S)N1C(=O)OCc1ccccc1 (configuration not stated) | > 100 | > 100 | > 100 | – | > 100 | > 100 | > 100 | > 100 | – | > 100 | > 100 | > 100 | > 100 | – | – | – | – | –
CCOC(=O)c1cc(-n2nnc3ccccc32)cn1C | > 10 | > 10 | > 10 | > 10 | > 10 | > 10 | > 10 | > 10 | > 10 | > 10 | > 10 | – | > 10 | – | – | – | – | –
Clc1cccc(-c2sc(-c3ccsc3)cc2Cc2ccsc2)c1 | > 10 | > 10 | > 10 | > 10 | – | > 10 | – | > 10 | – | > 10 | > 10 | > 10 | > 10 | – | – | – | – | –
COc1ccc(/C(C)=N/NC(=O)c2ccncc2)c(OC)c1 | > 10 | > 10 | > 10 | > 10 | – | > 10 | – | > 10 | > 10 | > 10 | > 10 | > 10 | > 10 | – | – | – | – | –
Cc1cc(S(=O)(=O)N2CCNNC2=O)c(S)cc1Cl | > 100 | > 100 | > 100 | > 100 | – | > 100 | > 100 | > 100 | > 100 | > 100 | > 100 | > 100 | 61 | – | – | – | – | –
CC(=O)Nc1ccc2nc(-c3ccccn3)c(-c3ccccn3)nc2c1 | > 100 | > 100 | > 100 | > 100 | – | > 100 | > 100 | > 100 | > 100 | > 100 | > 100 | > 100 | > 100 | – | – | – | – | –
OC1c2ccccc2CCC1CN1CCN(CCOC(c2ccc(F)cc2)c2ccc(F)cc2)CC1 (configuration not stated) | 42.4 | – | > 100 | 27.3 | 20.8 | > 100 | > 100 | 18.9 | 20.1 | 30.8 | 24.4 | 38.2 | 31.6 | – | – | – | – | –
Cc1c(C)c(C)c(Cn2[nH]c(=O)n(C)c2=O)c(C)c1C | > 100 | > 100 | > 100 | > 100 | > 100 | – | > 100 | > 100 | > 100 | > 100 | > 100 | > 100 | > 100 | – | – | – | – | –
COC(=O)N1CC(=O)C(C(=O)NC23CC4CC(CC(C4)C2)C3)C1 (configuration not stated) | > 100 | – | > 100 | – | > 100 | > 100 | > 100 | > 100 | > 100 | > 100 | > 100 | > 100 | > 100 | – | – | – | – | –
Cc1ccc(C2(c3ccc(Cl)cc3)c3ccccc3C3=NCCN32)cc1 (configuration not stated) | 18.5 | 28.9 | 37.9 | 29.7 | 10.1 | 16.9 | 19.8 | 18.8 | – | 20.5 | 18.1 | 32.6 | 19.4 | – | – | – | – | –
CCNC(=O)c1cc(Cl)ccc1NC(=O)C12CC3CC(CC(C3)C1)C2 | > 100 | 60.6 | > 100 | > 100 | > 100 | > 100 | > 100 | – | > 100 | > 100 | > 100 | > 100 | > 100 | – | – | – | – | –
O=C1c2ccccc2C(=O)N1CCSCC(CO)SCCN1C(=O)c2ccccc2C1=O (configuration not stated) | > 100 | > 100 | > 100 | > 100 | > 100 | > 100 | > 100 | > 100 | – | > 100 | > 100 | > 100 | > 100 | – | – | – | – | –
